{
  "source": "patent US20060110767A1",
  "about": "“Genotyping assay to predict cytochrome P4503A5 exression” (priority 2001, published 2006)",
  "key": {"[1]": {"biological_target": "T1, CYP3A5 (Homo sapiens, UniProt P20815)", "T1 sequence (P20815 whole entry)": "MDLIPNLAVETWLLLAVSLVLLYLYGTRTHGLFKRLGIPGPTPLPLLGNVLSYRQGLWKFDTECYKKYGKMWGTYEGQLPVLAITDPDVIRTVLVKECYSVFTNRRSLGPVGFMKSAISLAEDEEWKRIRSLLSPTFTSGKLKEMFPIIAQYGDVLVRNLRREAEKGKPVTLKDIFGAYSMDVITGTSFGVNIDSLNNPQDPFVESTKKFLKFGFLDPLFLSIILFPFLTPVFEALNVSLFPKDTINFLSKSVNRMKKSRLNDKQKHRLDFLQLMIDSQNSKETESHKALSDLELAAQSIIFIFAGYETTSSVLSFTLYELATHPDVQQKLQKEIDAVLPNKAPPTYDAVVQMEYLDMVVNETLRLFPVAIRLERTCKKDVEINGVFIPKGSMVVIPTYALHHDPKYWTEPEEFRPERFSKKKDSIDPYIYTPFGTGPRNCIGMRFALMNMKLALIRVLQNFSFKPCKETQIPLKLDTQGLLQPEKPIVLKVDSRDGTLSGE", "details": "cited from earlier work"}, "[2]": {"biological_target": "T2, CYP3A4 (Homo sapiens, UniProt P08684)", "T2 sequence (P08684 whole entry)": "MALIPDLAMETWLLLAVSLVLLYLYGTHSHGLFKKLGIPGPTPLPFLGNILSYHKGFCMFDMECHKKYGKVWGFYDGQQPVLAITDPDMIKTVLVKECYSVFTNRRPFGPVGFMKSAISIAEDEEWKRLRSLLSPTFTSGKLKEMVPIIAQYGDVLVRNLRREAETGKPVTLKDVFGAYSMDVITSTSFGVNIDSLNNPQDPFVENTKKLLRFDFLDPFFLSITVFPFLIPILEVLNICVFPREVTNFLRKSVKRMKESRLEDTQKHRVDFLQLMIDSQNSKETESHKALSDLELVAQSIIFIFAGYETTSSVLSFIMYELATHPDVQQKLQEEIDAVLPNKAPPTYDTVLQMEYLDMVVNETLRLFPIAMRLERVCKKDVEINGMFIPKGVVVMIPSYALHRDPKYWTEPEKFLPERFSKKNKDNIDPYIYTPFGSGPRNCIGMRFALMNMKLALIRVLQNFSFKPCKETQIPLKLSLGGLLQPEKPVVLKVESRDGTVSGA", "details": "cited from earlier work"}, "[3]": {"test_system": "CYP3A", "details": "cited from earlier work"}, "[4]": {"biological_target": "T1, CYP3A5", "details": "cited from earlier work", "remark": "listed apart in the source"}, "[5]": {"biological_target": "CYP3A7 (Homo sapiens, UniProt P24462)", "sequence (P24462 whole entry)": "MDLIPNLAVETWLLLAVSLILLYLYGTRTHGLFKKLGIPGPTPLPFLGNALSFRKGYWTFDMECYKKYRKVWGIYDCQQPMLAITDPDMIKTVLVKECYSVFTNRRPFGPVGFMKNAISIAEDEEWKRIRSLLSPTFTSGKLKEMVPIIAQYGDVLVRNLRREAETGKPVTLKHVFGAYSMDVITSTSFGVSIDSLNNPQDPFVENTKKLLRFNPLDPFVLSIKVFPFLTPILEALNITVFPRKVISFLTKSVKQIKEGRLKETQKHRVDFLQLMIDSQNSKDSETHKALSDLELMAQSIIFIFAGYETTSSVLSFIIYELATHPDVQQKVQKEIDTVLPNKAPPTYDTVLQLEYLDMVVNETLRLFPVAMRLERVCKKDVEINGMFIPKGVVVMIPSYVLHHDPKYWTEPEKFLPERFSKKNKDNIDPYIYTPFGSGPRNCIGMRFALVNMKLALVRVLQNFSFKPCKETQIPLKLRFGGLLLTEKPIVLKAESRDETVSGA", "details": "cited from earlier work"}, "[6]": {"biological_target": "CYP4503A5 (Homo sapiens, UniProt P20815)", "sequence (P20815 whole entry)": "as the sequence (P20815 whole entry) above", "details": "cited from earlier work"}, "[7]": {"biological_target": "T1, CYP3A5", "details": "pH 7.4", "experimental": "(§1) Midazolam, ^15N3-midazolam, 1′-OH MDZ and 4-OH MDZ were provided by Roche Laboratories. All incubations were performed in duplicate in solutions containing 0.1 M potassium phosphate (pH 7.4) and 20 to 100 μg human liver microsomes or 50 to 100 μg intestinal homogenates or 10 pmol of recombinant CYP3A4 or CYP3A5 (Gentest). Midazolam (final concentration, 8 μM) was added to the diluted tissue preparations, and the mixtures were preincubated at 37° C. for 5 min. We added NADPH (final concentration, 1 mM) to initiate the reaction. Incubation of human liver microsomes lasted for 2 min; incubation of recombinant CYP3A and intestinal samples lasted for 4 min. Reactions were terminated by the addition of 1 mL of ice-cold 0.1 M Na2CO3, pH ˜11. We used NCI GC-MS to measure the quantities of extracted 1′-OH MDZ and 4-OH MDZ (ref. 14). Reaction velocities and product ratios are presented as mean±SD. Statistical comparisons of mean data for different genotypes were performed by using a 2-sided, unpaired t test with unequal variances"}, "[8]": {"biological_target": "T2, CYP3A4", "details": "pH 7.4", "experimental": "as §1"}, "[9]": {"test_system": "CYP4503A enzymes", "details": "result in words (Wandel et al.); cited from earlier work"}, "[10]": {"details": "result in words (Wrighton et al.; Gillam et al.)"}},
  "note": "Read-outs that look alike come from different tables or passages of the source.",
  "data": [
    {"compound": "CCOc1ccc2c3c1O[C@H]1[C@@H](O)C=C[C@H]4[C@@H](C2)N(C)CC[C@@]341", "note": "[Ethylmorphine]", "values": [
      {"measurement": "CYP isoforms expressed in cells 3A5", "setting": "[1]", "value": "++"},
      {"measurement": "CYP isoforms expressed in cells 3A4", "setting": "[2]", "value": "+"},
      {"measurement": "Catalytic activity in human liver microsomes adult (%)", "setting": "[3]; adult, relative to adult rate = 100%", "value": 100, "unit": "%"},
      {"measurement": "Catalytic activity in human liver microsomes fetus (%)", "setting": "[3]; fetus, relative to adult rate = 100%", "value": 100, "unit": "%"},
      {"measurement": "CYP3A5 catalytic activity towards substrate", "setting": "[4]; [10]", "value": "considerable catalytic activity"}
    ]},
    {"compound": "NS(=O)(=O)Cc1noc2ccccc12", "note": "[Zonisamide]", "values": [
      {"measurement": "CYP isoforms expressed in cells 3A5", "setting": "[1]", "value": "+"},
      {"measurement": "CYP isoforms expressed in cells 3A4", "setting": "[2]", "value": "+++"},
      {"measurement": "CYP isoforms expressed in cells 3A7", "setting": "[5]", "value": "++"}
    ]},
    {"compound": "Cc1ncc2n1-c1ccc(Cl)cc1C(c1ccccc1F)=NC2", "note": "[Midazolam]", "values": [
      {"measurement": "alpha- to 4-hydroxylation of midazolam, CYP4503A5 versus CYP4503A3 or CYP4503A4", "setting": "[6]", "value": "far greater"},
      {"measurement": "increase of midazolam metabolism with CYP4503A5 expression", "setting": "[6]", "value": 2.7},
      {"measurement": "CYP isoforms expressed in cells 3A5", "setting": "[1]", "value": "+++"},
      {"measurement": "ratio of 1′-OH MDZ to 4-OH MDZ", "setting": "[7]", "value": 16.1},
      {"measurement": "ratio of 1′-OH MDZ to 4-OH MDZ", "setting": "[8]", "value": 5.5},
      {"measurement": "formation rate of 1-hydroxy-midazolam for CYP3A5 versus CYP3A4", "setting": "[4]", "value": "considerably higher"},
      {"measurement": "rate of formation of 4-hydroxy-midazolam with CYP3A4 and CYP3A5", "setting": "[4]", "value": "similar"}
    ]},
    {"compound": "CN1C(=O)CN=C(c2ccccc2)c2cc(Cl)ccc21", "note": "[Diazepam]", "values": [
      {"measurement": "Catalytic activity in human liver microsomes Child (%)", "setting": "[3]", "value": "140 (3-12 mo) %"},
      {"measurement": "Catalytic activity in human liver microsomes adult (%)", "setting": "[3]", "value": 100, "unit": "%"},
      {"measurement": "Catalytic activity in human liver microsomes fetus (%)", "setting": "[3]", "value": "<5", "unit": "%"}
    ]},
    {"compound": "COc1ccc2c(c1)[C@]13CCCC[C@@H]1[C@H](C2)N(C)CC3", "note": "[Dextromethorphan]", "values": [
      {"measurement": "Catalytic activity in human liver microsomes adult (%)", "setting": "[3]", "value": 100, "unit": "%"},
      {"measurement": "Catalytic activity in human liver microsomes fetus (%)", "setting": "[3]", "value": 30, "unit": "%"}
    ]},
    {"compound": "C[C@]12CCC(=O)C=C1CC[C@@H]1[C@@H]2[C@@H](O)C[C@@]2(C)[C@H]1CC[C@]2(O)C(=O)CO", "note": "[Cortisol]", "values": [
      {"measurement": "CYP isoforms expressed in cells 3A5", "setting": "[1]", "value": "++"},
      {"measurement": "CYP isoforms expressed in cells 3A4", "setting": "[2]", "value": "+++"},
      {"measurement": "CYP isoforms expressed in cells 3A7", "setting": "[5]", "value": "−"}
    ]},
    {"compound": "NC(=O)N1c2ccccc2C=Cc2ccccc21", "note": "[Carbamazepine]", "values": [
      {"measurement": "CYP isoforms expressed in cells 3A5", "setting": "[1]", "value": "++"},
      {"measurement": "CYP isoforms expressed in cells 3A4", "setting": "[2]", "value": "+++"},
      {"measurement": "Catalytic activity in human liver microsomes adult", "setting": "[3]; adult, carbamazepine metabolism, result in words", "value": "Present"},
      {"measurement": "Catalytic activity in human liver microsomes fetus", "setting": "[3]; fetus, CBZ-E formation (?), result in words", "value": "CBZ-E"},
      {"measurement": "CYP isoforms expressed in cells 3A7", "setting": "[5]", "value": "+"}
    ]},
    {"compound": "aflatoxins", "values": [
      {"measurement": "CYP3A5 catalytic activity towards substrate", "setting": "[4]", "value": "No CYP3A5 catalytic activity"}
    ]},
    {"compound": "CCOC(=O)C1=C(C)NC(C)=C(C(=O)OC)C1c1cccc([N+](=O)[O-])c1", "note": "(centres unmarked) [nitrendipine]", "values": [
      {"measurement": "effect on liver microsomal hydroxylation of midazolam", "setting": "[9]", "value": "inhibits"}
    ]},
    {"compound": "C[C@]12CCC(=O)CC1CC[C@@H]1[C@@H]2CC[C@]2(C)C(=O)CC[C@@H]12", "note": "(some centres unmarked) [Androstanedione]", "values": [
      {"measurement": "CYP isoforms expressed in cells 3A5", "setting": "[1]", "value": "++"},
      {"measurement": "CYP isoforms expressed in cells 3A4", "setting": "[2]", "value": "+++"},
      {"measurement": "CYP isoforms expressed in cells 3A7", "setting": "[5]", "value": "++"}
    ]},
    {"compound": "aflatoxin B1", "values": [
      {"measurement": "8,9-epoxidation step (activation step) by CYP3A5", "setting": "[4]", "value": "efficiently catalyzes"},
      {"measurement": "rate of 3α-hydroxylation (inactivation step) by CYP3A5 relative to CYP3A4", "setting": "[4]", "value": "approximately 1%"}
    ]},
    {"compound": "C[C@]12CC[C@H]3[C@@H](CCC4=CC(=O)CC[C@@]43C)[C@@H]1CC[C@@H]2O", "note": "[Testosterone]", "values": [
      {"measurement": "CYP isoforms expressed in cells 3A5", "setting": "[1]", "value": "++"},
      {"measurement": "CYP isoforms expressed in cells 3A4", "setting": "[2]", "value": "+++"},
      {"measurement": "Catalytic activity in human liver microsomes newborn (%)", "setting": "[3]", "value": "30-40%"}
    ]},
    {"compound": "CC(=O)[C@H]1CC[C@H]2[C@@H]3CCC4=CC(=O)CC[C@]4(C)[C@H]3CC[C@]12C", "note": "[Progesterone]", "values": [
      {"measurement": "CYP isoforms expressed in cells 3A5", "setting": "[1]; 6β-hydroxylation", "value": "++"},
      {"measurement": "CYP isoforms expressed in cells 3A4", "setting": "[2]", "value": "+++"}
    ]},
    {"compound": "C#C[C@]1(O)CC[C@H]2[C@@H]3CCc4cc(O)ccc4[C@H]3CC[C@@]21C", "note": "[17α-ethinyl-estradiol]", "values": [
      {"measurement": "CYP3A5 catalytic activity towards substrate", "setting": "[4]; [10]", "value": "No CYP3A5 catalytic activity"}
    ]}
  ]
}
